{
  "source": "paper PMC5413018",
  "about": "“Neuropeptide S (NPS) variants modify the signaling and risk effects of NPS Receptor 1 (NPSR1) variants in asthma” (PLoS ONE, 2017)",
  "key": {"NPSR1-Ile(107) [1]": {"test_system": "NPSR1-Ile(107)", "conditions": "cell models; cited from earlier work", "source_text": "The functional NPSR1 SNP rs324981 (A>T), encoding a substitution of Asn(107)Ile in the putative ligand-binding pocket of NPSR1 [5], has shown associations with neuropsychiatric phenotypes, such as panic disorders, psychological stress, and fear responses. […] In cell models, the change of Asn(107) to Ile(107) results in 10-fold increase in NPS-mediated intracellular sign ... || A key strength of this study is the use of robust in vitro cell assays that allowed us to dissect the functional effects of coding NPS/NPSR1 variants on receptor signaling and downstream gene expression. Our cell assays confirmed that stimulation of cells transfected with either NPSR1-Asn(107) or NPSR-Ile(107) with the wildtype NPS-Val(6), induced CRE activity as described previously."}, "NPSR1-Ile(107) [2]": {"molecular_target": "T1, NPSR1-Ile(107) (Homo sapiens, UniProt Q6W5P4, N107I)", "T1 sequence (Q6W5P4 1-371 N107I)": "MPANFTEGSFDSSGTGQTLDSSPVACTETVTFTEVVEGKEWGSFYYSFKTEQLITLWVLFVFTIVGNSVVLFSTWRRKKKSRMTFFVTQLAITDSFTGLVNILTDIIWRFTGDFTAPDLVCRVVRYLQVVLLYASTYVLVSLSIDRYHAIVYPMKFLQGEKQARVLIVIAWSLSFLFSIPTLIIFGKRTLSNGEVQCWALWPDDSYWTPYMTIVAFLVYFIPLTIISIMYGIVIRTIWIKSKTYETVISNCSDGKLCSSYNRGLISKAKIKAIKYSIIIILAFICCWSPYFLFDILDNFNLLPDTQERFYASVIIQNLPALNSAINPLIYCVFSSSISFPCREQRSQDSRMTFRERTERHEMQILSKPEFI", "assay": "Real-time RT-PCR of downstream target genes in SH-SY5Y cells stably overexpressing NPSR1-Ile(107)", "format": "cell-based", "parameters": "expressed in transfected cells", "conditions": "SH-SY5Y over-expressing NPSR1-Ile(107), 0.0001–1 μM, 3 h, dose dependent", "method": "Fig 2 Real time RT-PCR analysis of NPSR1 downstream target genes. (A) Time-dependent mRNA expression of NR4A1, FOS, CXCL2, and CCL20 in human embryonic kidney epithelial (HEK293) cells transiently transfected with either NPSR1-Ile(107) or NPSR1-Asn(107) coding variants and stimulated with either NPS-Val(6) or NPS-Leu(6) NPS (100 nM) for 1, 3, 6, and 24 h. (B) Dose-response curves of NR4A1, FOS, IER3, and EGR1 in human SH-SY5Y stable cell line over-expressing NPSR1-Ile(107) stimulated with either NPS-Leu(6) or NPS V6 (0.0001–1 μM) for 3 h. The results are presented as fold-changes in comparison to the unstimulated cells. GAPDH was used as the endogenous reference, and data are expressed as mean of triplicate samples. […] In all experiments, results were calculated with the comparative Ct method.\nAltered neuroinflammatory mechanisms have been implicated in allergic airway inflammation. […] SH-SY5Y cells stably overexpressing NPSR1-Ile(107) were stimulated with either NPS-Leu(6) or NPS-Val(6) (0.0001–1 μM) for 3 h and the mRNA expression of known downstream target genes in these cells was detected using RT-PCR. […] These observations validated the results detected in HEK293 cells in an independent cell line.\nThe stable NPSR1-A-GFP expressing SH-SY5Y cells were engineered and cultured as described before. […] The changes in gene expression were analyzed with real-time PCR (RT-PCR). […]"}},
  "data": [
    {"substance": "Neuropeptide S (SFRNGVGTGMKKTSFQRAKS; Neuropeptide S; UniProt P0C0P6 70-89, looked up) [NPS, Neuropeptide S, variant not specified at the place]", "values": [
      {"measurement": "increase in NPS-mediated intracellular signaling on change of Asn(107) to Ile(107)", "setting": "NPSR1-Ile(107) [1]", "value": 10, "unit": "fold"},
      {"measurement": "mRNA expression of NR4A1, FOS, EGR1 and IER3 (in words)", "setting": "NPSR1-Ile(107) [2]", "value": "increased"}
    ]}
  ]
}
